For one compound, melting point results are on record in US11066371B2, “Pyridine compound, making, and use thereof” (UNITED ARAB EMIRATES UNIVERSITY, priority 2015, dated 2021).

Structures are written as SMILES.

Consider `Cc1c(C#N)c([O-])nc(-c2ccccc2)c1/N=N/c1ccc([N+](=O)[O-])cc1.[K+]`, for which the melting point was above 300 °C.

Broadly, the melting point is the temperature of the solid-liquid transition.
